According to PMC3112094, “Pro-apoptotic activity of α-bisabolol in preclinical models of primary human acute leukemia cells” (Journal of Translational Medicine, 2011):

Tests used:
T lymphocytes = assay: Cytotoxicity in normal peripheral blood cells, TruCOUNT flow cytometry; format: cell-based, human
Protocol: Viable peripheral blood leukocytes and bone marrow cells from - 4 - control donors were treated and used as specified above for leukemic cells.
Cells derived from patients or normal donors were exposed for 24 hours to 20, 40, 80, and 160 μM α-bisabolol dissolved in ethanol (1:8 in order to minimize drug volumes), and when appropriate to 3 μM imatinib mesylate (Novartis, Basel, CH), representative of the in vivo active concentration. All cytotoxicity tests were performed in triplicate.
The absolute counts of normal leukocytes sub-populations were measured with TruCOUNT tubes (Becton Dickinson, San Jose, CA) by polychromatic flow cytometry according to the manufacturer's instructions with minor modifications. Peripheral blood and bone marrow cells were cultured with α-bisabolol for 24, 48, 72, 96 and 120 hours. At the end of the culture, 200 μL of sample, a mixture of antibodies (CD45 APC-H7, CD3 PE-Cy7, CD19 PE, CD14 APC for peripheral blood and CD45 APC-H7, CD34 PE, CD33 PE-Cy7 for bone marrow) and 7-amino-actinomycin D (all reagents from Becton Dickinson) for dead cells exclusion were added to the TruCOUNT tubes. After a 15-minute incubation at room temperature, 1 mL lysing reagent (Biosource, Nivelles, BE) was added for 10 minutes. A total of 40,000 beads were acquired on a FACSCanto cytometer (Becton Dickinson). […]

healthy lymphocytes = assay: Oxygen consumption of permeabilized cells (oxygraph, Clark electrode); format: cell-based, human; conditions: healthy lymphocytes of 6 donors, 3 μM α-bisabolol, 10 minutes, 30°C
Protocol: (§1) Leukemic cells and normal lymphocytes were centrifuged (10 minutes, 200 × g) and washed with ice cold buffer A (250 mM sucrose, 20 mM HEPES, 10 mM MgCl2 - pH 7.1). The pellet was resuspended in 2 mL of buffer A containing 80 μg of digitonin. After a 1-minute incubation on ice, 8 mL of buffer A were added and cells were centrifuged (3 minutes, 400 × g). The pellet was resuspended in 100 μL buffer A containing 1 mM ADP, 2 mM […] (respiration buffer) and immediately used for the polarographic assay. Cell number and permeabilization was measured by the trypan blue exclusion method. Permeabilized leukemic cells and lymphocytes were assayed for oxygen consumption at 30°C using a thermostatically controlled oxygraph and Clark electrode. Cells were incubated for 10 minutes in respiration buffer at 30°C in the presence or absence of 3 μM α-bisabolol. Mitochondrial respiration (state 3 respiration) was started by adding 5 mM glutamate plus malate (G/M) and 5 mM succinate plus glycerol-3-phosphate (S/[…]), which are complex I and […]/glycerol-3-phosphate dehydrogenase substrates, respectively. The maximal respiration rate (uncoupled respiration) was empirically determined by the addition of 200 nM carbonylcyanide-4- (trifluoromethoxy)-phenylhydrazone (FCCP).

[1] = test system: permeabilized leukemic cells; assay: as above; format: cell-based, human
Protocol: as §1

BID = assay: Western blot for BID cleavage and mitochondrial translocation; format: cell-based, human
Protocol: Cells were homogenized at 4°C in 50 mM Tris-HCl (pH 8) containing 0.1% Nonidet-P40 (NP-40), 200 mM KCl, 2 mM MgCl2, 50 μM ZnCl2, 2 mM DTT, and protease inhibitors [1 mM phenylmethylsulfonyl fluoride (PMSF), 1 mg/mL leupeptin, and 1 mg/mL antipain]. Aliquots of the homogenates (40 μg total protein/lane) were loaded on SDS-polyacrylamide gels at the appropriate concentrations. Electrophoresis was performed at 100 V with a running buffer containing 0.25 M Tris-HCl (pH 8.3), 1.92 M glycine, and 1% SDS. The resolved proteins were electroblotted onto a nitrocellulose membrane using the iBlot™ system (Invitrogen, Carlsbad, CA). Membranes were then incubated with a mouse monoclonal IgG antibody to poly(ADP-ribose) polymerase (PARP) (Zymed, South San Francisco, CA), with a rabbit polyclonal IgG antibody to BID (Cell Signaling Technology, Danvers, MA) or with a rabbit polyclonal IgG antibody to α-tubulin (Cell Signaling Technology). The membranes were then washed and incubated with an anti-mouse or anti-rabbit IgG peroxidase-conjugated antibody (Cell Signaling Technology). The blots were washed again and then incubated with enhanced chemiluminescent detection reagents (Immun-Star™ WesternC™ Kit, Bio-Rad, Hercules, CA) according to the manufacturer's instructions. Proteins were detected using the ChemiDoc XRS Imaging System (Bio-Rad). […]

[2] = test system: HUVECs, fibroblasts and hepatocytes; assay: Sparing of normal non-hematologic cells (personal observation); format: cell-based
[3] = design: method as in PMID 14975741; conditions: previous studies ref 1; cited from earlier work

CC(C)=CCC[C@](C)(O)[C@@H]1CC=C(C)CC1 [α-bisabolol]
IC50 (T lymphocytes; Homo sapiens, T-lymphocyte, 24 h, normal peripheral blood T lymphocytes): 59 ± 7 µM | sensitivity to α-bisabolol (T lymphocytes; T lymphocytes, 40 μM α-bisabolol over 120 hours): only marginally sensitive | respiration in state 3 (G/M, S/G3P) and with FCCP (healthy lymphocytes): not statistically modified | oxygen consumption sustained by S/G3P oxidation ([1]; 3 μM α-bisabolol, 10 minutes, 30°C): not affected | NADH-supported state 3 respiration (G/M) oxygen consumption ([1]; 3 μM α-bisabolol, 10 minutes, 30°C, 6 leukemias, untreated controls 280.7 ± 11.9): 140.0 ± 70.5 pmol O2/minute/10^6 cells | stimulation of mitochondrial respiration by FCCP (uncoupled respiration) ([1]; 3 μM α-bisabolol-treated leukemic cells, 200 nM FCCP): not stimulated | cleavage of BID to truncated BID (BID; 24-hour α-bisabolol, any concentration, PBMCs and blasts): did not induced the cleavage of BID | BID translocation to mitochondrial fraction (BID; different times and solubilized doses of α-bisabolol): No BID translocation was detected | effect of concentrations active on leukemias on normal cells [2]: spared | solubility fraction [3]: 2.5%
